Literature values in US20080227642A1, “Salts, aqueous liquid compositions containing salts of abscisic acid analogs and methods of their preparation” (priority 2007, published 2008).

Details: room temperature

## CC1=CC(=O)CC(C)(C)[C@@]1(O)/C=C/C(C)=C\C(=O)O [(S)-(+)-abscisic acid, 2-cis-,4-trans-(S)-(+)-abscisic acid]
  highest concentration that can be achieved in pure water: about 3000 ppm
